Data taken from ChEMBL document CHEMBL1201862, “PubChem BioAssay data set” (2004).
Active and inactive are the calls of the source.

Assays:
[1] = target: Dual specificity protein phosphatase 3 (Homo sapiens, UniProt P51452); test: VHR1 inhibitor Ki determination, SAR follow-up, biochemical, colorimetric (AID 2004)
[2] = target: T1, Heat shock factor protein 1 (Mus musculus, UniProt P38532); test: inhibition of MG132-induced HSE-luciferase signal, confirmation, cell-based, NIH3T3, luminescence, dose retest (AID 2382); format: functional;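 further: NIH3T3 fibroblasts with HSF1-driven luciferase reporter stressed by proteasome inhibitor MG132; luminescence from HSF1-driven luciferase expression after 8 hours of MG132 stress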
T1 sequence (P38532 whole entry): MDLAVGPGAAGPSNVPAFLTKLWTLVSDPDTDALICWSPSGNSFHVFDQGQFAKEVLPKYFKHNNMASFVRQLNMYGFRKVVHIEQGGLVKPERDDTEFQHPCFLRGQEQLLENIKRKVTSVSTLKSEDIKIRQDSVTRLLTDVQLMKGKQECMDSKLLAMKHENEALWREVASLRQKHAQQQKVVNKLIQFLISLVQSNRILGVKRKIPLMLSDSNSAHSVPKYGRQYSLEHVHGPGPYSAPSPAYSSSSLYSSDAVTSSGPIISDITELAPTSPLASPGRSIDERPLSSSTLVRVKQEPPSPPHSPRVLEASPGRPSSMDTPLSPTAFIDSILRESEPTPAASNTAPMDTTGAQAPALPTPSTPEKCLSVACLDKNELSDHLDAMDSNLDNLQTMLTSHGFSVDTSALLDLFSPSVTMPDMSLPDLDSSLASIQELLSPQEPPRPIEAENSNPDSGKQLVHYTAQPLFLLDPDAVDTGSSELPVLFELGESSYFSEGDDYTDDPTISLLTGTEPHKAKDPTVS

[3] = target: Metabotropic glutamate receptor 4 (Rattus norvegicus, UniProt P31423); test: Modulation of the Metabotropic Glutamate Receptor mGluR4: Rat PAM Potency. [Related pubchem assays (depositor defined):AID2437, AID2807]; format: functional
Vasopressin V1a receptor = Vasopressin V1a receptor (Homo sapiens, UniProt P37288); test: Counterscreen for Oxytocin Receptor (OXTR) agonists: Fluorescence-based cell-based high throughput dose response assay to identify agonists of the vasopressin 1 receptor (V1R). [Related pubchem assays: 2435 (Primary screen (OXTR agonists in singlicate)), 434991 (Counterscreen (V1R agonists in triplicate)), 2482 (Summary (OXTR agonists)) …; format: functional
Oxytocin receptor = Oxytocin receptor (Homo sapiens, UniProt P30559); test: Fluorescence-based cell-based high throughput dose response assay for agonists of the Oxytocin Receptor (OXTR). [Related pubchem assays: 2435 (Primary screen (OXTR agonists in singlicate)), 434991 (Counterscreen (V1R agonists in triplicate)), 2482 (Summary (OXTR agonists)), 434963 (Confirmation screen (OXTR agonists in triplicate))]; format: functional
Vero = test: cells; format: functional; details: Chlorocebus sabaeus
[4] = target: G2/mitotic-specific cyclin-B1 (Homo sapiens, UniProt P14635); test: Counterscreen assay for inhibitors of Wee1 degradation: dose response cell-based assay to identify inhibitors of cyclin B degradation. [Related pubchem assays: 1410, 1321 ]; format: functional
Wee1-like protein kinase = Wee1-like protein kinase (Homo sapiens, UniProt P30291); test: Dose Response Cell-based Assay for Inhibitors of Wee1 Degradation. [Related pubchem assays: 1410, 1321 ]; format: functional
[5] = cytotoxicity in HEK-293T cells, dose response, cytotoxicity control for TCR NF-kB inhibitor project, luminescence, T-cell screen hits (AID 489026); format: functional, cell-based;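 further: cells exposed to compound about 14 hours before the viability readout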
[6] = target: Mothers against decapentaplegic homolog 3 (Homo sapiens, UniProt P84022); test: Smad3 binding inhibitors, lysate ELISA, dose response, cell lysate, secondary confirmation, chemiluminescent ELISA, HEK293 lysate (AID 1058); format: functional
Trypanosoma cruzi = test: growth inhibition of intracellular Trypanosoma cruzi, dose response, cell-based, plate reader, dry powder, set 3 (AID 493197); format: functional
[7] = target: T2, Eukaryotic translation initiation factor 2-alpha kinase 3 (Homo sapiens, UniProt Q9NZJ5); test: Dose response cell-based high-throughput screening assay to measure PERK inhibition. [Related pubchem assays: 1416 ]; format: functional
[8] = target: T2, Eukaryotic translation initiation factor 2-alpha kinase 3; test: Counterscreen assay for PERK inhibitors: Dose response cell-based high throughput screening assay to measure inhibition of PERK at 6 hours. [Related pubchem assays: 1522, 1416 ]; format: functional
[9] = polyadenylation inhibitors in yeast reporter, dose response, luminescence, S. cerevisiae SKY197-pL101 (AID 2525); format: functional, cell-based
[10] = Luminescence Cell-Based Dose Confirmation HTS to Identify Inhibitors of Polyadenylation.; format: functional
[11] = target: Melanin-concentrating hormone receptor 1 (Homo sapiens, UniProt Q99705); test: Late-stage fluorescence-based counterscreen for antagonists of the G-protein coupled receptor 7 (GPR7): cell-based dose response assay to identify antagonists of the melanin-concentrating hormone receptor 1 (MCHR1). [Related pubchem assays (depositor defined):AID1861, AID1880, AID1952, AID2148, AID2251, AID2257, AID485339]; format: functional;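 further: stimulated with 30 nM MCH peptide agonist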
[12] = target: Lysosomal acid glucosylceramidase (Homo sapiens, UniProt P04062); test: Dose response cell-based high throughput screening assay to identify enhancers of beta-glucosidase activity. [Related pubchem assays: 784 ]; format: functional
[13] = inhibitors of Bluetongue virus cytopathic effect, confirmation, arbovirus, BSR cells (AID 1250); format: functional;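 further: protection from viral cytopathic effect measured as cell viability by ATP luminescence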
H9c2 = test: cells; format: functional, cell-based; details: Rattus norvegicus, H9c2, Myocardium;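 further: confirmatory concentration-response retest of ultra-high-throughput screening hits for modulation of myocardial damage; cell death induced by hydrogen peroxide oxidative stress; compound pretreatment for 60 min then peroxide exposure for 2 h; potency is for protecting the cells against peroxide damage rather than for killing them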
[14] = target: Photoreceptor-specific nuclear receptor (Homo sapiens, UniProt Q9Y5X4); format: functional;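 further: potency for compounds that break the NR2E3 corepressor complex and count as activators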
[15] = target: Peroxisome proliferator-activated receptor gamma/Nuclear receptor corepressor 2 (Homo sapiens, UniProt P37231+Q9Y618); format: functional
Melanocortin receptor 4 = Melanocortin receptor 4 (Homo sapiens, UniProt P32245); test: MC4R antagonist potency on cAMP, dose response, cell-based, TR-FRET, biased antagonists (AID 602298); format: functional;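 further: antagonist potency against agonist-stimulated cAMP production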
[16] = nonselective inhibitors of cellular cAMP signaling, dose response, counter-screen for MC4R biased antagonist project, cell-based, TR-FRET cAMP detection (AID 602305); format: functional;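 further: U2OS cells stimulated with forskolin near its EC80 as the cAMP inducer; potency is for inhibition of forskolin-stimulated cAMP signaling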
[17] = Counterscreen for IDE inhibitors: Luminescence-based cell-based high throughput dose response assay to identify compounds that are cytotoxic to HEK cells. [Related pubchem assays: 434962 (Primary screen (IDE inhibitors in singlicate)), 449730 (Counterscreen (Cytotoxicity in triplicate)), 435028 (Confirmation (IDE inhibitors in triplicate)) …; format: functional; details: HEK293
Insulin-degrading enzyme = target: T3, Insulin-degrading enzyme (Homo sapiens, UniProt P14735); test: Dose Response: Fluorescence polarization-based cell-based high throughput dose response assay for inhibitors of insulin-degrading enzyme (IDE). [Related pubchem assays: 434962 (Primary screen (IDE inhibitors in singlicate)), 449730 (Counterscreen (Cytotoxicity in triplicate)), 435028 (Confirmation (IDE inhibitors in triplicate)), 434984 (Summary …; format: functional
T3 sequence (P14735 whole entry): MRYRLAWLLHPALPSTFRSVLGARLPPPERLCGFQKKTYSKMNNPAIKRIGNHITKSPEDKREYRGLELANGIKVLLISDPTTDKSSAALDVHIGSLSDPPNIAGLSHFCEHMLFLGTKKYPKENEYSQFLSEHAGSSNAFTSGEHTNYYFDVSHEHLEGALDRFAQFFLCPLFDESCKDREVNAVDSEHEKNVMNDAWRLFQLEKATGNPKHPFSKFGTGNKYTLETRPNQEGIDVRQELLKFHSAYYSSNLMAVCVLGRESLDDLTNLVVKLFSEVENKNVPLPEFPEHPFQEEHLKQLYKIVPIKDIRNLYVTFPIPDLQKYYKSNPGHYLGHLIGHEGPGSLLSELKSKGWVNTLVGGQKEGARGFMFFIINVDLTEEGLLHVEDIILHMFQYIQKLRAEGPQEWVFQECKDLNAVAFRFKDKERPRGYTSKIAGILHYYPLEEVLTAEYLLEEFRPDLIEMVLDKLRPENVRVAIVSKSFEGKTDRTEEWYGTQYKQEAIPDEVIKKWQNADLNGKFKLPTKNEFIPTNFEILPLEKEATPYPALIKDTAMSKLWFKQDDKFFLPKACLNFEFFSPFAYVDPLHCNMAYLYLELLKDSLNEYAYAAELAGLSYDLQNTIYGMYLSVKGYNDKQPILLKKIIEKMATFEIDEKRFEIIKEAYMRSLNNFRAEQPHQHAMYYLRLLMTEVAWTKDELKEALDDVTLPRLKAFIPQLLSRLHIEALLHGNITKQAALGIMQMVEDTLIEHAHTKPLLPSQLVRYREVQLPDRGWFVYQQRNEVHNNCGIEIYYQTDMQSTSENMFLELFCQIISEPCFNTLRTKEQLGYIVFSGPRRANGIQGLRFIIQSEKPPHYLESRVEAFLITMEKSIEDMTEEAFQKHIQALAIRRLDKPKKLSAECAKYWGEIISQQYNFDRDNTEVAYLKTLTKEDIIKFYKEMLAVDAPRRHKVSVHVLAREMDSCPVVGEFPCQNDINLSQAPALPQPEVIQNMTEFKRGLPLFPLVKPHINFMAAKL

[18] = target: T4, Heat shock 70 kDa protein 1A (Homo sapiens, UniProt P0DMV8); test: Hsp70 inhibitors, biochemical, TR-FRET (AID 786)
[19] = target: T4, Heat shock 70 kDa protein 1A; test: Hsp70 inhibitors, probe displacement, primary screen, biochemical, fluorescence polarization (AID 583)
Cytochrome P450 3A4 = Cytochrome P450 3A4 (Homo sapiens, UniProt P08684); details: Potency;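 further: confirmatory qHTS run detecting inhibitors and substrates of CYP3A4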
[20] = target: Eukaryotic translation initiation factor 4H (Homo sapiens, UniProt Q15056); test: human eIF4H binding inhibitors, primary screen, translation initiation inhibitor project, biochemical, uHTS, fluorescence polarization (AID 2012)
[21] = inhibitors of intracellular T. cruzi replication, confirmation, NIH3T3 host cells, beta-gal luminescence (AID 2044); format: functional, cell-based;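 further: intracellular parasites grown in NIH/3T3 mouse fibroblasts as host cells; luminescent beta-galactosidase reporter signal from transgenic T. cruzi replicating inside host cells; inhibitors lower the luminescence signal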
[22] = cytotoxicity toward NIH3T3 fibroblasts, dose response, counter-screen, cell-based, ATP luminescence, mouse fibroblasts (AID 2010); format: functional;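 further: cells exposed to compound for about 90 hours before reading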
[23] = target: Polyadenylate-binding protein 1 (Homo sapiens, UniProt P11940); test: PABP poly(A) RNA binding inhibitors, primary screen, biochemical, fluorescence polarization, uHTS (AID 2014)
Cytochrome P450 2C19 = Cytochrome P450 2C19 (Homo sapiens, UniProt P33261); test: qHTS Assay for Inhibitors and Substrates of Cytochrome P450 2C19. [Related pubchem assays: 410 ]; format: ADME; details: read-out: Potency
Cytochrome P450 2C9 = Cytochrome P450 2C9 (Homo sapiens, UniProt P11712); details: Potency
Sequence of Cytochrome P450 2C9 (P11712 whole entry): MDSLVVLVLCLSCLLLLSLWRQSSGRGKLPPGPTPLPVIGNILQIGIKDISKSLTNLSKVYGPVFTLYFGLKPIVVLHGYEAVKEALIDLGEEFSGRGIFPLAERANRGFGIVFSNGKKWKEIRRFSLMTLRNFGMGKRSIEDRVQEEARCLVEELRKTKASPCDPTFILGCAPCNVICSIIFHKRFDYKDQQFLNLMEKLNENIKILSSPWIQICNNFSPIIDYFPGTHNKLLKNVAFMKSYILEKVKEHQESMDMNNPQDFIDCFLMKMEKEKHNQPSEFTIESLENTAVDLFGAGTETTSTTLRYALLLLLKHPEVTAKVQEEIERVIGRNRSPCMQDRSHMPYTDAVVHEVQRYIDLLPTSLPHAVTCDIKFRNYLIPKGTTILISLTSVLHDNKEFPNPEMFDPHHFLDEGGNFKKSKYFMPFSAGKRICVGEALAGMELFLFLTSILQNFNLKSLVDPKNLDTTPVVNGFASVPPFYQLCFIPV

T2 sequence (Q9NZJ5 whole entry): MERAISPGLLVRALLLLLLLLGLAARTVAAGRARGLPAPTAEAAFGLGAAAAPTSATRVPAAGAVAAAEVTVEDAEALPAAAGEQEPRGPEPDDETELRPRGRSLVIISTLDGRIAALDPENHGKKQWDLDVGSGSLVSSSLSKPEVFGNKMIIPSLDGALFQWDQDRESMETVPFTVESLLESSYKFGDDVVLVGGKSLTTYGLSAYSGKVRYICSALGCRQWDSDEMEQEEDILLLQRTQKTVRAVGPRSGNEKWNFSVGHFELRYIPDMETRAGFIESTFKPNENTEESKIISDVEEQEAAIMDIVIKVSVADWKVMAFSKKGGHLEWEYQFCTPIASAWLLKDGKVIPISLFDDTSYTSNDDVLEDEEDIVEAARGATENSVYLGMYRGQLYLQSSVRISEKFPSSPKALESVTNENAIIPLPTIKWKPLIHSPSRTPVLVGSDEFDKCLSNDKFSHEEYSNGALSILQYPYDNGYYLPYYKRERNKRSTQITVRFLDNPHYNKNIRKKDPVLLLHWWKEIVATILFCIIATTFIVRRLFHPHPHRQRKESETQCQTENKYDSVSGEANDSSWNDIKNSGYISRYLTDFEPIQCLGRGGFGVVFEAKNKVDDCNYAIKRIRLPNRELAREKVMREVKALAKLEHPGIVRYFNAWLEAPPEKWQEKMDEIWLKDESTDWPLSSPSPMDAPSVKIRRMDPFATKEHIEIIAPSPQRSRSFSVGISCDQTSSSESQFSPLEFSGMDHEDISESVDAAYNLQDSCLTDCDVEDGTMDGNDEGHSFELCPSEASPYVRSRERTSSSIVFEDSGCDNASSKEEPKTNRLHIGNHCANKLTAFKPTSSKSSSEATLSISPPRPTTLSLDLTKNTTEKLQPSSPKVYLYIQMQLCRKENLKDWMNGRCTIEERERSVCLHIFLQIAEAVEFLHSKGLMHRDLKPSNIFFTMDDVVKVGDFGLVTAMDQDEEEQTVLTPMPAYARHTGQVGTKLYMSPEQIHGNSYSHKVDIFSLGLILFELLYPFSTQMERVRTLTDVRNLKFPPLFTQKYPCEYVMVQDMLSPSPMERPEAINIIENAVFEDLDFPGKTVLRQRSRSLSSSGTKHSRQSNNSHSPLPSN
T4 sequence (P0DMV8 whole entry): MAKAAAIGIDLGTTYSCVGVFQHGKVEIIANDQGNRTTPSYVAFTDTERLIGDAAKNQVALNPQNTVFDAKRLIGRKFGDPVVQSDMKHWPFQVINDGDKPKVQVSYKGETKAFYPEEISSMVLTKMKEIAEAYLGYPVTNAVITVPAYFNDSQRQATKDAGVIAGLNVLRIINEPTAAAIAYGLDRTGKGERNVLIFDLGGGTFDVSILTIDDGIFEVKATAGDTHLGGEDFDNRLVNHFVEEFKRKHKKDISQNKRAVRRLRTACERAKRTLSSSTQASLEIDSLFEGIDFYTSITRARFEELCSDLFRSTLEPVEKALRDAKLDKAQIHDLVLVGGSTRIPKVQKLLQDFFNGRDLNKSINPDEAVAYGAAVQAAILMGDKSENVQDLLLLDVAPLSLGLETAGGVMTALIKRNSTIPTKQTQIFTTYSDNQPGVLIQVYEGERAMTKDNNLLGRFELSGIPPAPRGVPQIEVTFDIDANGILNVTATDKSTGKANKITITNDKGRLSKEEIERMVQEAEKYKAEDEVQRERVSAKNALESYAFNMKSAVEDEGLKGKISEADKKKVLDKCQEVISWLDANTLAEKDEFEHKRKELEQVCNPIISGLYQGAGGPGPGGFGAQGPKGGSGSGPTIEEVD
Sequence of Photoreceptor-specific nuclear receptor (Q9Y5X4 whole entry): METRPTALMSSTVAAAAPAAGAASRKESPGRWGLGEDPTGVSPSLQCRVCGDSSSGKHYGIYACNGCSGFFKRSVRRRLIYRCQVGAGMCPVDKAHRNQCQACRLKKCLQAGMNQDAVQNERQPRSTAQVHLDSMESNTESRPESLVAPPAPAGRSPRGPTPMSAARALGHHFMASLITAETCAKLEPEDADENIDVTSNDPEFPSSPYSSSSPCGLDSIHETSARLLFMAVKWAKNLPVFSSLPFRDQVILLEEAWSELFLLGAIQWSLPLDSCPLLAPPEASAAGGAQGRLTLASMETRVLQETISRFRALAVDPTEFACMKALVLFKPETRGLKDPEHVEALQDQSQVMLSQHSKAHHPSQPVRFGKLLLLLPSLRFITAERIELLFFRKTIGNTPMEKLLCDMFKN
Sequence of Wee1-like protein kinase (P30291 whole entry): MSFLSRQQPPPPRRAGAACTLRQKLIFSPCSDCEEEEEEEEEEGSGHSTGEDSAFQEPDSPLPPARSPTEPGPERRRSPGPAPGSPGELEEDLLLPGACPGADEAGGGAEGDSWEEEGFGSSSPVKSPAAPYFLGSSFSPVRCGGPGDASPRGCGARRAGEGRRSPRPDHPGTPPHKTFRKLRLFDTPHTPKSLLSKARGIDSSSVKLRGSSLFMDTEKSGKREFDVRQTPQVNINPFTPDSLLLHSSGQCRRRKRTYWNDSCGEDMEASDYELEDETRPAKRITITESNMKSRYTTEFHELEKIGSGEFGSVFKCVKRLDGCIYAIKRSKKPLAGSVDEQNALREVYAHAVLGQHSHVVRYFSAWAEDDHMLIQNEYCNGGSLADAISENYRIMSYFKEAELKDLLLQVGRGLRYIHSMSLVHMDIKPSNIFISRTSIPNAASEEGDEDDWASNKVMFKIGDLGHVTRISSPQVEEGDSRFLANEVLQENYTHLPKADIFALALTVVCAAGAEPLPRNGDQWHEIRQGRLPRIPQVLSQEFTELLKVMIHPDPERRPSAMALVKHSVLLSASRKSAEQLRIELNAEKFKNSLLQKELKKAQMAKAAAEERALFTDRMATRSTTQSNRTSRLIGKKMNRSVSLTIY
Sequence of Lysosomal acid glucosylceramidase (P04062 whole entry): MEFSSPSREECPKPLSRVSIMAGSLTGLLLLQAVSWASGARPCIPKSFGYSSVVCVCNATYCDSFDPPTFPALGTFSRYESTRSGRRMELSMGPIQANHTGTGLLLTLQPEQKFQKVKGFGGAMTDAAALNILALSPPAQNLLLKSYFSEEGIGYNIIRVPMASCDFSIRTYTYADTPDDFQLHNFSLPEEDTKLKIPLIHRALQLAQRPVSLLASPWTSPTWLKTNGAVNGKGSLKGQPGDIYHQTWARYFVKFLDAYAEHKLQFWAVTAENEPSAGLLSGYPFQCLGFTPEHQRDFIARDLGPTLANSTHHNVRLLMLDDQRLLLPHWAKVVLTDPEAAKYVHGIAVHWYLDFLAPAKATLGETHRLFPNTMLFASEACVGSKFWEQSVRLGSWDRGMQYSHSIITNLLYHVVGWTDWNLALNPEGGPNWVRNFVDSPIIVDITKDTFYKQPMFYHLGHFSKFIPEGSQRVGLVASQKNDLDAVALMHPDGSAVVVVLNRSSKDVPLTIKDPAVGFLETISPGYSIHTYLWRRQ
Sequence of Mothers against decapentaplegic homolog 3 (P84022 whole entry): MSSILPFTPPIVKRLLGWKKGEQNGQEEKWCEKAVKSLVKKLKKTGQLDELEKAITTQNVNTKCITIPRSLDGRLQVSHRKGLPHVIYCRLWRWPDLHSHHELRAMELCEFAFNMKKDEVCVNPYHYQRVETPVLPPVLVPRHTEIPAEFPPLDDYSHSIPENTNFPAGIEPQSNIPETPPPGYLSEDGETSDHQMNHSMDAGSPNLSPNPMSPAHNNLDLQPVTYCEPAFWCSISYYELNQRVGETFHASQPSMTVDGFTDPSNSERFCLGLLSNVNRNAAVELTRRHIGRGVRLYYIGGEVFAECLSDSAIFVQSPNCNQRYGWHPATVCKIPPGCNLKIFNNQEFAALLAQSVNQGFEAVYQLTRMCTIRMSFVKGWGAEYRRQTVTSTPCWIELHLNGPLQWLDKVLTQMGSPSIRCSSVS
Sequence of Cytochrome P450 3A4 (P08684 whole entry): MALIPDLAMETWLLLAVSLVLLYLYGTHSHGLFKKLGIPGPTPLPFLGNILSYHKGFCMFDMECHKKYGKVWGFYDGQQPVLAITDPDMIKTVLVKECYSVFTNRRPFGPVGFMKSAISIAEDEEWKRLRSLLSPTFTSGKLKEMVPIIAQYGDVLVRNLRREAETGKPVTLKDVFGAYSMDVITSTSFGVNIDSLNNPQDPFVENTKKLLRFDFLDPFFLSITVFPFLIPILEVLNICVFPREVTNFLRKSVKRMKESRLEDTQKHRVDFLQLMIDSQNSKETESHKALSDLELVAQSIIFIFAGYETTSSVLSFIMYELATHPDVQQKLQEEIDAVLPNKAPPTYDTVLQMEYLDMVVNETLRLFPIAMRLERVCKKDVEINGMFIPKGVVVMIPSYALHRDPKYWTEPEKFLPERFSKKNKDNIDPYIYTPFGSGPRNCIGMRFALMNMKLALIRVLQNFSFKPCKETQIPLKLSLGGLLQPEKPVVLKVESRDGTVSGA

Cc1ccc(S(=O)(=O)N2CCN(C(=O)c3cccc(F)c3)CC2)cc1
Ki [1]: 39.4 µM (inactive) | EC50 [2]: > 195 µM (not active)

O=C(Nc1ccc(N2C(=O)c3cccc(Cl)c3C2=O)c(Cl)c1)c1ccccn1
EC50 [3]: 30 nM (active)

Cc1ccc(NS(=O)(=O)c2ccc(C(=O)NCC(c3ccco3)N3CCCCC3)cc2)cc1 (centres undefined)
EC50 (Vasopressin V1a receptor): > 29.9 µM (not active) | EC50 (Oxytocin receptor): > 29.9 µM (not active) | CC50 (Vero): > 25 µM (active)

Cc1csc2sc(-c3ccnc(SCC(=O)NCc4ccccc4)n3)c(C)c12
EC50 [4]: > 49.7 µM (not active) | EC50 (Wee1-like protein kinase): > 49.7 µM (not active) | IC50 [5]: > 80 µM (inactive)

CN(C)c1ccc(C(c2cc3c(cc2O)OCO3)N2CCOCC2)cc1 (centres undefined)
IC50 [6]: > 40 µM (not active)

CN(Cc1ccccc1)C(=O)C1CCCN(Cc2ccc([N+](=O)[O-])cc2)C1 (centres undefined)
AC50 (Trypanosoma cruzi): 7.63 µM (active)

O=C(NNc1ccccc1F)c1ccccc1
EC50 [7]: > 55.7 µM (not active) | EC50 [8]: > 55.7 µM (not active)

N#CC1(C#N)C2=C(CCCC2)NC(c2ccccc2)C1(C#N)C#N (centres undefined)
EC50 [9]: 3.77 µM (active) | EC50 [10]: 7.92 µM (active)

Cc1ccc(-n2ncc(Cl)c(Oc3ccc(F)cc3F)c2=O)cc1
IC50 [11]: 17.4 µM (inactive)

CCC(C)n1cnc2c(c1=O)c1nc3ccccc3nc1n2Cc1ccc2c(c1)OCO2 (centres undefined)
EC50 [12]: > 10 µM (not active)

COc1ccc(-c2nc(NC(=O)c3ccc(OCC(=O)N4CCOCC4)c(OC)c3)sc2C)cc1
IC50 [13]: 83.5 µM (active) | IC50 (H9c2): > 79 µM (inactive)

O=C(O)c1cc(-c2ccc3c(c2)OCO3)nc2ccc(Br)cc12
IC50 [14]: > 39.8 µM (not active) | IC50 [15]: 1.76 µM (active) | IC50 (Melanocortin receptor 4): 35.7 µM (inactive) | IC50 [16]: > 64.6 µM (inactive)

Cc1c(NC(=O)/C(C#N)=C/c2ccc(-c3ccc(Cl)cc3)o2)c(=O)n(-c2ccccc2)n1C
IC50 [17]: 11.1 µM (not active) | IC50 (Insulin-degrading enzyme): 2.7 µM (active)

CC(C)(C)n1nnnc1C(c1ccc2ncccc2c1)N1CCSCC1 (centres undefined)
IC50 [18]: > 100 µM (not active) | IC50 [19]: > 100 µM (not active)

COc1ccc(-c2coc3c(OC)c(OC)cc(O)c3c2=O)cc1 [ISOTECTORIGENIN, 7-METHYL ETHER]
AC50 (Cytochrome P450 3A4): 39.8 µM (inconclusive)

COc1ccc(N=C(C)N(C)CCNS(=O)(=O)c2ccc(Cl)cc2)cc1Cl
IC50 [20]: > 100 µM (inactive) | EC50 [21]: 271 nM (active) | EC50 [22]: > 60 µM (not active) | IC50 [23]: 5.82 µM (active)

CCCC[C@@H]1C[C@H]1C(NP(=O)(c1ccccc1)c1ccccc1)c1ccc(Cl)cc1 (some centres undefined)
AC50 (Cytochrome P450 2C19): 10 µM (inconclusive) | AC50 (Cytochrome P450 2C9): 15.8 µM (inconclusive)
